Our source for the IC50 values is patent US20230278983A1, “INDOLE DERIVATIVES AND USES THEREOF FOR TREATING A CANCER” (Universite Claude Bernard Lyon 1, priority 2020, published 2023).

The structures appear in SMILES notation.

Sequence of CK2 (P68400 whole entry): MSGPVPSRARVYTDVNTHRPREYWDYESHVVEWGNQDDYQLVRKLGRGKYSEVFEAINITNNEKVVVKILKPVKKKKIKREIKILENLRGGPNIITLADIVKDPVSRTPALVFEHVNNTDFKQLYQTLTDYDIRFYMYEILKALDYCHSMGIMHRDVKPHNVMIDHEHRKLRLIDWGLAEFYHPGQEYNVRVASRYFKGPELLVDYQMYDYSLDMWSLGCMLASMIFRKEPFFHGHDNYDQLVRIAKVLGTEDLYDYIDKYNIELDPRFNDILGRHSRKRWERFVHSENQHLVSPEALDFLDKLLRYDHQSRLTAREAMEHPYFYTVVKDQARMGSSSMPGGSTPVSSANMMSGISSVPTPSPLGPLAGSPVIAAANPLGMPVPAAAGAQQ

The first assay concerns the target CK2 (Homo sapiens (Human), UniProt P68400). As to the kind of experiment: Radiometric CK2 kinase assay. The assay is classed as biochemical.
Conditions: not given
As a reminder, the IC50 is the concentration that inhibits the measured activity by half. Higher therefore signals lower potency. `O=S(=O)(NCCN1CCC(Cn2cc(-c3c[nH]c4ccccc34)nn2)CC1)c1ccccc1` [AB150, N-(2-(4-((4-(1H-Indol-3-yl)-1H-1,2,3-triazol-1-yl)methyl)piperidin-1-yl)ethyl)benzenesulfonamide] displayed an IC50 of 48500 nM.

On to `O=S(=O)(NCCN1CCC(Cn2cc(-c3c[nH]c4ccccc34)nn2)CC1)c1ccc(Cl)cc1` [AB152, N-(2-(4-((4-(1H-Indol-3-yl)-1H-1,2,3-triazol-1-yl)methyl)piperidin-1-yl)ethyl)-4-chlorobenzenesulfonamide], for which 35000 nM corresponded to half-maximal inhibition (IC50). Regarding `O=S(=O)(NCCN1CCC(Cn2cc(-c3c[nH]c4ccc(F)cc34)nn2)CC1)c1ccc(Cl)cc1` [AB153, 4-Chloro-N-(2-(4-((4-(5-fluoro-1H-indol-3-yl)-1H-1,2,3-triazol-1-yl)methyl)piperidin-1-yl)ethyl)benzenesulfonamide], half-maximal inhibition (IC50) required 15100 nM. Still for that read-out and setting: in the case of `CCOC(=O)c1[nH]c2ccc(F)cc2c1-c1cn(CC2CCN(CCNS(=O)(=O)c3ccc(Cl)cc3)CC2)nn1` [AB401, Ethyl 3-(1-((1-(2-((4-chlorophenyl)sulfonamido)ethyl)piperidin-4-yl)methyl)-1H-1,2,3-triazol-4-yl)-5-fluoro-1H-indole-2-carboxylate] it was 980 nM; in that of `CCOC(=O)c1[nH]c2cc(Cl)ccc2c1-c1cn(CC2CCN(CCNS(=O)(=O)c3ccc(Cl)cc3)CC2)nn1` [AB433, Ethyl 6-chloro-3-(1-((1-(2-((4-chlorophenyl)sulfonamido)ethyl)piperidin-4-yl)methyl)-1H-1,2,3-triazol-4-yl)-1H-indole-2-carboxylate], 8100 nM. On the same count and under the same terms, in the case of `CCOC(=O)c1[nH]c2ccc(Cl)cc2c1-c1cn(CC2CCN(CCNS(=O)(=O)c3ccc(Cl)cc3)CC2)nn1` [AB460, Ethyl 5-chloro-3-(1-((1-(2-((4-chlorophenyl)sulfonamido)ethyl)piperidin-4-yl)methyl)-1H-1,2,3-triazol-4-yl)-1H-indole-2-carboxylate] it was 2510 nM. Still for that read-out and setting: in the case of `CC(C)COC(=O)c1[nH]c2ccc(F)cc2c1-c1cn(CC2CCN(CCNS(=O)(=O)c3ccc(Cl)cc3)CC2)nn1` [AB498, Isobutyl 3-(1-((1-(2-((4-chlorophenyl)sulfonamido)ethyl)piperidin-4-yl)methyl)-1H-1,2,3-triazol-4-yl)-5-fluoro-1H-indole-2-carboxylate] it was 830 nM. Compound `CC(C)COC(=O)c1[nH]c2ccc(Cl)cc2c1-c1cn(CC2CCN(CCNS(=O)(=O)c3ccc(Cl)cc3)CC2)nn1` [AB499, Isobutyl 5-chloro-3-(1-((1-(2-((4-chlorophenyl)sulfonamido)ethyl)piperidin-4-yl)methyl)-1H-1,2,3-triazol-4-yl)-1H-indole-2-carboxylate] had an IC50 of 670 nM. The same measure, in the same setting: next, `CCOC(=O)c1[nH]c2cc(Cl)ccc2c1-c1cn(CC2CCN(CCNS(=O)(=O)c3ccc(C)cc3)CC2)nn1` [AB503, Ethyl 6-chloro-3-(1-((1-(2-((4-methylphenyl)sulfonamido)ethyl)piperidin-4-yl)methyl)-1H-1,2,3-triazol-4-yl)-1H-indole-2-carboxylate]: 9850 nM. The compound `CCOC(=O)c1[nH]c2ccc(F)cc2c1-c1cn(CC2CCN(CCNS(=O)(=O)c3ccc(C)cc3)CC2)nn1` [AB504, Ethyl 5-fluoro-3-(1-((1-(2-((4-methylphenyl)sulfonamido)ethyl)piperidin-4-yl)methyl)-1H-1,2,3-triazol-4-yl)-1H-indole-2-carboxylate] yielded an IC50 of 1800 nM. `CCOC(=O)c1[nH]c2ccc(Cl)cc2c1-c1cn(CC2CCN(CCNS(=O)(=O)c3ccc(C)cc3)CC2)nn1` [AB505, Ethyl 5-chloro-3-(1-((1-(2-((4-methylphenyl)sulfonamido)ethyl)piperidin-4-yl)methyl)-1H-1,2,3-triazol-4-yl)-1H-indole-2-carboxylate]: inhibition was half-maximal at 3760 nM (IC50).

`CCOC(=O)c1[nH]c2ccc(F)cc2c1-c1cn(CC2CCN(CCNS(=O)(=O)c3ccc(C(F)(F)F)cc3)CC2)nn1` [AB529, Ethyl 5-fluoro-3-(1-((1-(2-((4-(trifluoromethyl)phenyl)sulfonamido)ethyl)piperidin-4-yl)methyl)-1H-1,2,3-triazol-4-yl)-1H-indole-2-carboxylate] had a concentration for half-maximal inhibition (IC50) of 700 nM. As to `CCOC(=O)c1[nH]c2ccc(F)cc2c1-c1cn(CC2CCN(CCNS(=O)(=O)c3ccc4ccccc4c3)CC2)nn1` [AB536, Ethyl 5-fluoro-3-(1-((1-(2-(naphthalene-2-sulfonamido)ethyl)piperidin-4-yl)methyl)-1H-1,2,3-triazol-4-yl)-1H-indole-2-carboxylate], the IC50 turned out to be 800 nM. The same measure, in the same setting: in the case of `CCOC(=O)c1[nH]c2ccc(Cl)cc2c1-c1cn(CC2CCN(CCNS(=O)(=O)c3ccc(CC)cc3)CC2)nn1` [AB543, Ethyl 5-chloro-3-(1-((1-(2-((4-ethylphenyl)sulfonamido)ethyl)piperidin-4-yl)methyl)-1H-1,2,3-triazol-4-yl)-1H-indole-2-carboxylate] it was 930 nM; in that of `CCOC(=O)c1[nH]c2ccc(Cl)cc2c1-c1cn(CC2CCN(CCNS(=O)(=O)c3ccc(C(F)(F)F)cc3)CC2)nn1` [AB550, Ethyl 5-chloro-3-(1-((1-(2-((4-(trifluoromethyl)phenyl)sulfonamido)ethyl)piperidin-4-yl)methyl)-1H-1,2,3-triazol-4-yl)-1H-indole-2-carboxylate], 2240 nM.

Turning to `CCOC(=O)c1[nH]c2ccc(Cl)cc2c1-c1cn(CC2CCN(CCNS(=O)(=O)c3ccc4ccccc4c3)CC2)nn1` [AB551, Ethyl 5-chloro-3-(1-((1-(2-(naphthalene-2-sulfonamido)ethyl)piperidin-4-yl)methyl)-111-1,2,3-triazol-4-yl)-1H-indole-2-carboxylate], inhibition was half-maximal at 1780 nM (IC50).

Consider `CCc1ccc(S(=O)(=O)NCCN2CCC(Cn3cc(-c4c(C(=O)OCC(C)C)[nH]c5ccc(F)cc45)nn3)CC2)cc1` [AB556, Isobutyl 3-(1-((1-(2-((4-ethylphenyl)sulfonamido)ethyl)piperidin-4-yl)methyl)-1H-1,2,3-triazol-4-yl)-5-fluoro-1H-indole-2-carboxylate], for which the IC50 amounted to 170 nM. The same measure, in the same setting: next, `CCc1ccc(S(=O)(=O)NCCN2CCC(Cn3cc(-c4c(C(=O)OCC(C)C)[nH]c5ccc(Cl)cc45)nn3)CC2)cc1` [AB557, Isobutyl 5-chloro-3-(1-((1-(2-((4-ethylphenyl)sulfonamido)ethyl)piperidin-4-yl)methyl)-1H-1,2,3-triazol-4-yl)-1H-indole-2-carboxylate]: 560 nM; `CCc1ccc(S(=O)(=O)NCCN2CCC(Cn3cc(-c4c(C(=O)OC(C)C)[nH]c5ccc(F)cc45)nn3)CC2)cc1` [AB577, Isopropyl 3-(1-((1-(2-((4-ethylphenyl)sulfonamido)ethyl)piperidin-4-yl)methyl)-1H-1,2,3-triazol-4-yl)-5-fluoro-1H-indole-2-carboxylate]: 2300 nM; `CCc1ccc(S(=O)(=O)NCCN2CCC(Cn3cc(-c4c(C(=O)OC(C)C)[nH]c5ccc(Cl)cc45)nn3)CC2)cc1` [AB578, Isopropyl 5-chloro-3-(1-((1-(2-((4-ethylphenyl)sulfonamido)ethyl)piperidin-4-yl)methyl)-1H-1,2,3-triazol-4-yl)-1H-indole-2-carboxylate]: 9200 nM. Same read-out and setting: in the case of `CCOC(=O)c1[nH]c2ccc(F)cc2c1-c1cn(CC2CCN(CCNS(=O)(=O)c3ccc(C(C)C)cc3)CC2)nn1` [AB579, Ethyl 5-fluoro-3-(1-((1-(2-((4-isopropylphenyl)sulfonamido)ethyl)piperidin-4-yl)methyl)-1H-1,2,3-triazol-4-yl)-1H-indole-2-carboxylate] it was 430 nM; in that of `CCOC(=O)c1[nH]c2ccc(Cl)cc2c1-c1cn(CC2CCN(CCNS(=O)(=O)c3ccc(C(C)C)cc3)CC2)nn1` [AB582, Ethyl 5-chloro-3-(1-((1-(2-((4-isopropylphenyl)sulfonamido)ethyl)piperidin-4-yl)methyl)-1H-1,2,3-triazol-4-yl)-1H-indole-2-carboxylate], 1250 nM; in that of `CCc1ccc(S(=O)(=O)NCCN2CCC(Cn3cc(-c4c(C(=O)OCCO)[nH]c5ccc(F)cc45)nn3)CC2)cc1` [AB597, 2-Hydroxyethyl 3-(1-((1-(2-((4-ethylphenyl)sulfonamido)ethyl)piperidin-4 yl)methyl)-1H-1,2,3-triazol-4-yl)-5-fluoro-1H-indole-2-carboxylate], 1600 nM.

`CC(C)COC(=O)c1[nH]c2ccc(F)cc2c1-c1cn(CC2CCN(CCNS(=O)(=O)c3ccc4ccccc4c3)CC2)nn1` [AB598, Isobutyl 5-fluoro-3-(1-((1-(2-(naphthalene-2-sulfonamido)ethyl)piperidin-4-yl)methyl)-1H-1,2,3-triazol-4-yl)-1H-indole-2-carboxylate] gave an IC50 of 510 nM. `CC(C)COC(=O)c1[nH]c2ccc(Cl)cc2c1-c1cn(CC2CCN(CCNS(=O)(=O)c3ccc4ccccc4c3)CC2)nn1` [AB599, Isobutyl 5-chloro-3-(1-((1-(2-(naphthalene-2-sulfonamido)ethyl)piperidin-4-yl)methyl)-1H-1,2,3-triazol-4-yl)-1H-indole-2-carboxylate] returned a half-inhibitory concentration (IC50) of 3200 nM. `CC(C)COC(=O)c1[nH]c2ccc(F)cc2c1-c1cn(CC2CCN(CCNS(=O)(=O)c3ccc(C(F)(F)F)cc3)CC2)nn1` [AB600, Isobutyl 5-fluoro-3-(1-((1-(2-((4-(trifluoromethyl)phenyl)sulfonamido)ethyl)piperidin-4-yl)methyl)-1H-1,2,3-triazol-4-yl)-1H-indole-2-carboxylate] came in with an IC50 of 350 nM.

The assay is the same for the next values; noted with them: inhibition of CK2 activity; ATP 10 μM.
Turning to `O=C(O)c1[nH]c2ccc(Cl)cc2c1-c1cn(CC2CCN(CCNS(=O)(=O)c3ccc(Cl)cc3)CC2)nn1` [AB201, 5-Chloro-3-(1-((1-(2-((4-chlorophenyl)sulfonamido)ethyl)piperidin-4-yl)methyl)-1H-1,2,3-triazol-4-yl)-1H-indole-2-carboxylic acid], the midpoint of inhibition, the IC50, lay at 10100 nM. Same read-out and setting: next, `O=C(O)c1[nH]c2cc(Cl)ccc2c1-c1cn(CC2CCN(CCNS(=O)(=O)c3ccc(Cl)cc3)CC2)nn1` [AB202, 6-Chloro-3-(1-((1-(2-((4-chlorophenyl)sulfonamido)ethyl)piperidin-4-yl)methyl)-1H-1,2,3-triazol-4-yl)-1H-indole-2-carboxylic acid]: 12100 nM.
